Data on four compounds can be found in paper PMC7026418, “The kinase polypharmacology landscape of clinical PARP inhibitors” (Scientific Reports, 2020).

Test in all cases: biochemical
Design in all cases: DiscoveRx KINOMEscan active site-directed competition binding; percent of control kinase bound to immobilised ligand

The target in test [1] is RET(V804L) (Homo sapiens, UniProt P07949, V804L).
In test [2] the target is T1, CDC2L1 (Homo sapiens, UniProt P21127).
T1 construct: gene CDK11B

The target in test [3] is T2, MEK4 (Homo sapiens, UniProt P45985).
T2 construct: gene MAP2K4
T2 sequence (P45985 1-399): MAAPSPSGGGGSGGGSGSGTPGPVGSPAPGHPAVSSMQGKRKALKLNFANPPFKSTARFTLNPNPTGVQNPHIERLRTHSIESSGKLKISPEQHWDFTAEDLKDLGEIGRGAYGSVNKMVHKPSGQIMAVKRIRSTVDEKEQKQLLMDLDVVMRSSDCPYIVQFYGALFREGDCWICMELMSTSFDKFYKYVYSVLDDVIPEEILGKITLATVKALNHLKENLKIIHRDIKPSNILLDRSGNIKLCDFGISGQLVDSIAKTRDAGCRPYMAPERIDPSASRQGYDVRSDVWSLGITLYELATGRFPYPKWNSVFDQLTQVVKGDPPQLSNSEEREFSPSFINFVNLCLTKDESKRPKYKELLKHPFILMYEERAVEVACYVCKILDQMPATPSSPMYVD

Test [4] deals with T3, PKMYT1 (Homo sapiens, UniProt Q99640).
T3 sequence (Q99640 1-499): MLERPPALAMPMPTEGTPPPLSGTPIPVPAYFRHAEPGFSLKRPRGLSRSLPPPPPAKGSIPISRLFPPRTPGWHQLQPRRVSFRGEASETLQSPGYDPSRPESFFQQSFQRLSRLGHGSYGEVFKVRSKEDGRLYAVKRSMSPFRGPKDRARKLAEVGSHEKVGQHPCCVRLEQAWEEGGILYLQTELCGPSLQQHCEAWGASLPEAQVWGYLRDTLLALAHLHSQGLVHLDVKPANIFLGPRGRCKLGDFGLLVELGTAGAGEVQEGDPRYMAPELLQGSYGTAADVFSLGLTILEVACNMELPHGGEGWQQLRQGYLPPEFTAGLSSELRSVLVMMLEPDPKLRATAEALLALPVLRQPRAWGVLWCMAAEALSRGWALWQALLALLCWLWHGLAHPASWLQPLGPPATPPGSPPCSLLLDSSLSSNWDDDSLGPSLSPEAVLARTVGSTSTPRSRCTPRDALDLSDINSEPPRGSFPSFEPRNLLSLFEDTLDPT

Test [5] addresses TRPM6 (Homo sapiens, UniProt Q9BX84).
Test [6] has as its target T4, MINK (Homo sapiens, UniProt Q8N4C8).
T4 construct: gene MINK1

Test [7] addresses T5, MLCK (Homo sapiens, UniProt Q32MK0).
T5 construct: gene MYLK3
T5 sequence (Q32MK0 1-819): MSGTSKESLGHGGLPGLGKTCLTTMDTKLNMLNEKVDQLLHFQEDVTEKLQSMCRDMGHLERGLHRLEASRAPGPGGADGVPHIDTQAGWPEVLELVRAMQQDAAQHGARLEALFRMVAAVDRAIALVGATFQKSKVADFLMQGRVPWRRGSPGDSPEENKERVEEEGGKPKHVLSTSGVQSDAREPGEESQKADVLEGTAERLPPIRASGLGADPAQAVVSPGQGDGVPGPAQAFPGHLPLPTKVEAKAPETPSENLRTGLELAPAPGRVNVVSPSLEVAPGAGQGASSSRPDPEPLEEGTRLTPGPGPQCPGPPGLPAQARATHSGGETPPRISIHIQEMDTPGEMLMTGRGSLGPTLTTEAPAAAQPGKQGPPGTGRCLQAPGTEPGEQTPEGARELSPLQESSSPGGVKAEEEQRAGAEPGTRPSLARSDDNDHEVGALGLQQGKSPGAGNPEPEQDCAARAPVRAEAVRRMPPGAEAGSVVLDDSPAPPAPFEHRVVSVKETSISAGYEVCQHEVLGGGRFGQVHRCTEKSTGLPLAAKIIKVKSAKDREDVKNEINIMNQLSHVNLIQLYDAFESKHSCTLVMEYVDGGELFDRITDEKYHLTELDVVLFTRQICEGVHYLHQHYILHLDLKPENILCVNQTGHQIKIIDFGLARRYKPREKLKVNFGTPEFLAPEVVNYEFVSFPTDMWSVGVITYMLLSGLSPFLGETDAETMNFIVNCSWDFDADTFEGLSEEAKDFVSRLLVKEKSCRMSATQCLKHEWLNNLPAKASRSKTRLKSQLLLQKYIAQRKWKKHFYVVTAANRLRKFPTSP

Test [8] has as its target GSK3A (Homo sapiens, UniProt P49840).
Setting [9] is: read-out: Rucaparib / %Ctrl @ 10000nM, binding competition, % of control.
[10] abbreviates: read-out: Talazoparib (BMN 673) / %Ctrl @ 10000nM.
The mark [11] stands for this setting: read-out: Niraparib (MK-4827) / %Ctrl @ 10000nM.
[12] abbreviates: read-out: Olaparib / %Ctrl @ 10000nM.

The structures appear in SMILES notation. Where two headings read alike, the source gives them in different places.

T1 sequence (P21127 whole entry): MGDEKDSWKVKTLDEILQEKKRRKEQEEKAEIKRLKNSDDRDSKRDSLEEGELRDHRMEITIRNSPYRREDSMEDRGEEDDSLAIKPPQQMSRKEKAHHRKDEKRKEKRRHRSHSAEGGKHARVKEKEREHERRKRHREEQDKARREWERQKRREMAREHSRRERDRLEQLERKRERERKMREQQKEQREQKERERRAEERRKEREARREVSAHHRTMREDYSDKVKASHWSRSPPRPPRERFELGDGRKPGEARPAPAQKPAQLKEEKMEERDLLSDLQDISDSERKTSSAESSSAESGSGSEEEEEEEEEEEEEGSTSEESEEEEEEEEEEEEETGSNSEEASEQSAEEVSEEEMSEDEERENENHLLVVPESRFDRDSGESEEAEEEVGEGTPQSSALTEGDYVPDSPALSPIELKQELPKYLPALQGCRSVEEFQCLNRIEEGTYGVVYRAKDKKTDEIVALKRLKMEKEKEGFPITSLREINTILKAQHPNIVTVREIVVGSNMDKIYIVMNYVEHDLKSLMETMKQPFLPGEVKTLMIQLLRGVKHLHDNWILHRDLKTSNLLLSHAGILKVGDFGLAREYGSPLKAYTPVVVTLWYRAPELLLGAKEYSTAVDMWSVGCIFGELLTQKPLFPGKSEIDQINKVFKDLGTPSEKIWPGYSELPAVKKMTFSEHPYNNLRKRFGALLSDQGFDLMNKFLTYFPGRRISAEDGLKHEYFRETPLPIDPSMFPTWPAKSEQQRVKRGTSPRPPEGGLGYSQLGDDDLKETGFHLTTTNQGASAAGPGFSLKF
TRPM6, sequence (Q9BX84 whole entry): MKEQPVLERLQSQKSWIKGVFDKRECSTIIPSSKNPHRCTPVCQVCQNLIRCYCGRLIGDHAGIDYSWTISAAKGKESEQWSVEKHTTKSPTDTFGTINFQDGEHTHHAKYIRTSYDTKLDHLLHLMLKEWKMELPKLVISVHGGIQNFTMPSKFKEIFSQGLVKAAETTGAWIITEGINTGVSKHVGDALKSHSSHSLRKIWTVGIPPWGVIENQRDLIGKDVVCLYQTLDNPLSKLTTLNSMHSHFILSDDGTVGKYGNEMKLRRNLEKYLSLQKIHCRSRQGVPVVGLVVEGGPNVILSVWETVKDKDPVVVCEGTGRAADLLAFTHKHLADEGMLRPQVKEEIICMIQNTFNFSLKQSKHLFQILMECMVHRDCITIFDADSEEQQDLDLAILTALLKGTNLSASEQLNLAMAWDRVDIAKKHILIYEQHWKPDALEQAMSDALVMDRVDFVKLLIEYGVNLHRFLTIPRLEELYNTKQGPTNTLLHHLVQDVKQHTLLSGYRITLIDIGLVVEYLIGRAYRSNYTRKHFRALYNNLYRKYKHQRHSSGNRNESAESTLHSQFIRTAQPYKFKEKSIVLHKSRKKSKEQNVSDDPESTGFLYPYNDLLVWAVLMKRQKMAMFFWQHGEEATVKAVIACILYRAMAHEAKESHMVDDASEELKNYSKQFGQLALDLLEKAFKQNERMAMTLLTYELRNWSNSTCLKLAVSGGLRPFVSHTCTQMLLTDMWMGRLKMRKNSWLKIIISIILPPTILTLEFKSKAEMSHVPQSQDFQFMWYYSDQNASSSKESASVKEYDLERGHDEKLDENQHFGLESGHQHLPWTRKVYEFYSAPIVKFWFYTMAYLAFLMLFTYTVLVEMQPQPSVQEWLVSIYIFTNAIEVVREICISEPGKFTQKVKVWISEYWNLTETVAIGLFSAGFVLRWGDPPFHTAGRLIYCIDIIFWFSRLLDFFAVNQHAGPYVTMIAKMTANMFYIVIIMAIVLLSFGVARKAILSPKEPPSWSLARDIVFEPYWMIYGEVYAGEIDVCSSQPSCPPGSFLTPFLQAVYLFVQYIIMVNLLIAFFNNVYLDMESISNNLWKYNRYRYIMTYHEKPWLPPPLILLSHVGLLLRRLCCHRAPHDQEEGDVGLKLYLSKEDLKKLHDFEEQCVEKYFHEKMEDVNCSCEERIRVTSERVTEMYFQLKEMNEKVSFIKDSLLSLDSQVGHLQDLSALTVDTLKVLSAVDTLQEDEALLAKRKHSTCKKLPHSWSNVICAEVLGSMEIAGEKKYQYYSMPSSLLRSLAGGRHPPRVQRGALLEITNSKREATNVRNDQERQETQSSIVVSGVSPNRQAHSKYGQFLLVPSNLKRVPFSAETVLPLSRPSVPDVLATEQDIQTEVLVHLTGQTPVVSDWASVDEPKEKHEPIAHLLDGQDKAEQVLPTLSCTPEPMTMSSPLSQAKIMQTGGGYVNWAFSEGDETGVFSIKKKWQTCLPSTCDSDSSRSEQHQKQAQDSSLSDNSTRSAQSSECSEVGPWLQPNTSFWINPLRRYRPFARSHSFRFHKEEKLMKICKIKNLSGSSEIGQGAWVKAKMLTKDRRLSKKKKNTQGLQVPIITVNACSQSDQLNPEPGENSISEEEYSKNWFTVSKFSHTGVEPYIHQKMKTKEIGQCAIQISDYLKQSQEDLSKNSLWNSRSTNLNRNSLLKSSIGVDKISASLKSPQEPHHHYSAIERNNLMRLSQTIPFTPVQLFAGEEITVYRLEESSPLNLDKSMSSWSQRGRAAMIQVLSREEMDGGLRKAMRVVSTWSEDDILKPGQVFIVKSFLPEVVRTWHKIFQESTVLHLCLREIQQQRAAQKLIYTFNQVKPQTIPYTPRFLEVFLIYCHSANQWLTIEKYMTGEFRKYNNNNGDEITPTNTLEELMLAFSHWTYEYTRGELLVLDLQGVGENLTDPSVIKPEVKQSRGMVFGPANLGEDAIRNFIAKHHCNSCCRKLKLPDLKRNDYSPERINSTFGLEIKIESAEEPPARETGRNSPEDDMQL
T4 sequence (Q8N4C8 whole entry): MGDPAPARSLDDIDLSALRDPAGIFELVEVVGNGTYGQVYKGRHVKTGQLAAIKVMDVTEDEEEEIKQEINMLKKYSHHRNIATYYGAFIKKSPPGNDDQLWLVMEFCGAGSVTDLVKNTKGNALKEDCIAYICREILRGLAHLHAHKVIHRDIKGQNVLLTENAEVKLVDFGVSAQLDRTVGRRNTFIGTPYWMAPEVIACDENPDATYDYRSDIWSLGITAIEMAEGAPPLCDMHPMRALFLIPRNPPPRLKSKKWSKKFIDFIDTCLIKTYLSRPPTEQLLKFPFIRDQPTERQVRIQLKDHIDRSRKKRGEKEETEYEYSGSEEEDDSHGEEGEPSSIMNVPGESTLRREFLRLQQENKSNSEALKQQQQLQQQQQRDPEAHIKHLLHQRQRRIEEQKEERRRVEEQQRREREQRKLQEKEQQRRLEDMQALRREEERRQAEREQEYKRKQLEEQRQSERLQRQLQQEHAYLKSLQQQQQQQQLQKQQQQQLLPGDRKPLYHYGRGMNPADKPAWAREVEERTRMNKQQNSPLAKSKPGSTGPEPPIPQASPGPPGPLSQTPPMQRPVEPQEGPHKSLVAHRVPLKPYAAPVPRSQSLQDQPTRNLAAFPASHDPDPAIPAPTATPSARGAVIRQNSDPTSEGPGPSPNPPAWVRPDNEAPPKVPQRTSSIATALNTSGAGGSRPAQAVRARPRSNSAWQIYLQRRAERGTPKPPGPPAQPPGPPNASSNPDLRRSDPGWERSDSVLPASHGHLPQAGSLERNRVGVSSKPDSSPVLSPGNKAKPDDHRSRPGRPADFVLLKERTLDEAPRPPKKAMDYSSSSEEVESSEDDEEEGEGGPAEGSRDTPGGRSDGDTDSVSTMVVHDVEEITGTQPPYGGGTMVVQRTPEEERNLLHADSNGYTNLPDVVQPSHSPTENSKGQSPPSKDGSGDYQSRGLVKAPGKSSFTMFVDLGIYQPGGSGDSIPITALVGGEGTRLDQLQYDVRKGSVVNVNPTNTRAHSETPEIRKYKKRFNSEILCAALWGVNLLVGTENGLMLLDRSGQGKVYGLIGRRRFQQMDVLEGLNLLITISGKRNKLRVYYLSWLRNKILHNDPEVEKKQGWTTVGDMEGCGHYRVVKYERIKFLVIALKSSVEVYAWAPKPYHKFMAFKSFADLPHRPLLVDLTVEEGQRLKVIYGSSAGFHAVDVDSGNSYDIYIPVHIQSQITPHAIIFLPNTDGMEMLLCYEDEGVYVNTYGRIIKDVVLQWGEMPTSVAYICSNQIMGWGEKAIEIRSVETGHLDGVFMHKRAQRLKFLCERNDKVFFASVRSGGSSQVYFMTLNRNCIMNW
GSK3A, sequence (P49840 whole entry): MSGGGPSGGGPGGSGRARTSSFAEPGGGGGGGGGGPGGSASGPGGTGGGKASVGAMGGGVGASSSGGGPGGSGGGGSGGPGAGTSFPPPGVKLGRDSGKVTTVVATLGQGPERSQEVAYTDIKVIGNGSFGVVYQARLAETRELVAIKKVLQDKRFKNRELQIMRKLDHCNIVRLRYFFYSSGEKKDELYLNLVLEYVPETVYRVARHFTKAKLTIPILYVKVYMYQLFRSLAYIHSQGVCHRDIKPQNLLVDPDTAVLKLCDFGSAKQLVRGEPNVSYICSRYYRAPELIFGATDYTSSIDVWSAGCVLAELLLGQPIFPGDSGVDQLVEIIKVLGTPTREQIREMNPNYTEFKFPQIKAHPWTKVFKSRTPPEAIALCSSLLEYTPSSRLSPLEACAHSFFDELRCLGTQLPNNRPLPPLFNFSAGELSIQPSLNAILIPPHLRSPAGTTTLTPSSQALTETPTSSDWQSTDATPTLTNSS

Regarding `CNCc1ccc(-c2[nH]c3cc(F)cc4c3c2CCNC4=O)cc1` [Rucaparib], the percent of control binding at 10 µM came to 95% in test [1] (setting [9]); 99% in test [2] (setting [9]); 69% in test [3] (setting [9]); 100% in test [4] (setting [9]); 77% in test [5] (setting [9]); 29% in test [6] (setting [9]). Moreover, the percent of control binding at 10 µM in test [7] (setting [9]) was 53%; in test [8] (setting [9]), 21%.
For `Cn1ncnc1[C@H]1c2n[nH]c(=O)c3cc(F)cc(c23)N[C@@H]1c1ccc(F)cc1` [Talazoparib], the percent of control binding at 10 µM is 96% in test [1] (setting [10]); 100% in test [2] (setting [10]); 99% in test [3] (setting [10]); 100% in test [4] (setting [10]); 100% in test [5] (setting [10]); 100% in test [6] (setting [10]). In addition, the percent of control binding at 10 µM came out at 98% in test [7] (setting [10]) and 100% in test [8] (setting [10]).
For the compound `NC(=O)c1cccc2cn(-c3ccc([C@@H]4CCCNC4)cc3)nc12` [Niraparib], the percent of control binding at 10 µM in test [1] (setting [11]) came out at 92%; in test [2] (setting [11]), 100%; in test [3] (setting [11]) it was 82%; in test [4] (setting [11]), 93%; in test [5] (setting [11]), 71%; in test [6] (setting [11]) it was 67%. Moreover, the percent of control binding at 10 µM in test [7] (setting [11]) was 92%; in test [8] (setting [11]) it was 48%.
On to `O=C(c1cc(Cc2n[nH]c(=O)c3ccccc23)ccc1F)N1CCN(C(=O)C2CC2)CC1` [Olaparib], for which the percent of control binding at 10 µM in test [1] (setting [12]) was 100%; in test [2] (setting [12]), 99%; in test [3] (setting [12]) it was 80%; in test [4] (setting [12]) it was 100%; in test [5] (setting [12]), 84%; in test [6] (setting [12]), 100%. Also, the percent of control binding at 10 µM in test [7] (setting [12]) and in test [8] (setting [12]) was 95% in each case.
